Reference: paper PMC8686256, “DZNep promotes mouse bone defect healing via enhancing both osteogenesis and osteoclastogenesis” (Stem Cell Research & Therapy, 2021)

What was measured:
bone defect mice = assay: Tibia cortical and trabecular bone defect mice model; format: in vivo, mouse
Description: The tibia cortical and trabecular bone defect mice model was established to determine the bone healing effect of DZNep in vivo. Firstly, all mice (twelve 8-week-old C57/BL6 male mice (approximate weight 20 ± 2 g)) were anesthetized by 2% isoflurane, the right tibia was exposed, and muscles were dissociated. Then a pilot hole was first made with a burr drill point in the proximal tibia, but away from the growth plate to some extent. Then the hole was enlarged with a 1 mm […]. Afterward, the mice were average divided into two groups: (1) DZNep group (injection with 100 μg/kg DZNep); (2) Sham group (injection with 1 × PBS). Two days after operation, 1 × PBS for sham group and DZNep for treatment group were intraperitoneally injected every two days during next two week. All mice were finally euthanized after experiment, and whole tibia bones were separated. After fixed in 4% paraformaldehyde for 24 h, the 75% ethanol was then used to soak the specimens for further histological and radiographic analysis. High-resolution micro-CT (μCT-100, SCANCO Medical AG, Switzerland) was used to perform the micro-computed tomography (CT) scanning. […] For analysis bone mass of defect section, a region of defect section trabecular bone was contoured, starting from the first defect section level away from proximal end of the […] growth plate. Femoral trabecular bone was thresholded at 211 per mille. The indicators of bone microstructure (bone volume/tissue volume (BV/TV), trabecular thickness (Tb.Th), trabecula number (Tb.N), trabecula separation (Tb.Sp), and bone surface/ bone volume (BS/BV)) were measured by software (Version: 6.5-3, SCANCO Medical AG, Switzerland) through evaluating and analyzing the three-dimensional region of interest (ROI). After fixing in 4% paraformaldehyde for 48 h, the 10% EDTA was used to decalcify the fixed tibias for 21 days. Then the tissues were processed by dehydrating in different concentrations of ethanol, infiltrating with xylene, and embedding with paraffin. Hematoxylin and eosin (H&E) and TRAP staining were then performed on these prepared histological sections. As for immunofluorescent staining, slices were processed in a sequence of deparaffinization, hydration, antigen retrieval, permeabilization, blocking, primary antibody incubation (OCN, USA, Affinity; dilution 1:100), secondary antibody incubation, and nuclear staining finally. Immunohistochemical (IHC) staining was accomplished with antibodies against OCN (USA, Affinity; dilution 1:100). The specimens were observed and photographed under the high-quality microscope (Leica DM4000B). Each sample's number of osteoclasts and TRAP-positive multinucleated osteoclasts per field (Oc.S/BS) were calculated.

EZH2 and H3K27me3 = assay: Western blotting of EZH2, H3K27me3 and GSK-3β in BMSC; format: cell-based, mouse
MAPKs signaling pathways = assay: Western blotting of MAPKs signaling pathways; format: cell-based, mouse; conditions: RAW264.7, 25 nM pretreatment, vs control
Description: To explore the variation of the proteins on long-term activated signaling, BMMs were cultured in α-MEM containing M-CSF (30 ng/ml) and RANKL (50 ng/ml) at a density of 2 × 10^5 cells/well on 6-well plates. After 24 h, the BMMs were treated with or without 25 nM DZNep for 0, 1, 3, and 5 days, and total protein was obtained, respectively, on these specific time points. To determine the effect of DZNep on the protein of short-time activated phosphorylated, RAW264.7 cells were cultured in α-MEM at a density of 5 × 10^5 cells/well on 6-well plates. One day later, the cells were treated with the serum-free α-MEM in the presence or absence of DZNEP for 3 hand then stimulated with 50 ng/mL RANKL for 0, 10, 20, 30, and 60 min. To determine the efficiency of EZH2 shRna, BMMs were cultured in α-MEM at a density of 5 × 10^5 cells/well on 6-well plates. One day later, the cells were treated with negative control shRNA or different EZH2 shRNA for 2 days. To determine the efficiency of Foxc1 siRna, BMMs were cultured in α-MEM at a density of 5 × 10^5 cells/well on 6-well plates. […] After TBST wash for 3 times, the secondary fluorescence antibodies were incubated without light for 1 h at room temperature and the reactivity was visualized by using Odyssey V3.0 image scanning (Li-COR. Inc., Lincoln, NE, USA). […]

[1] = 100 μg/kg i.p. every two days, two weeks

Compound: Nc1nccc2c1ncn2C1C=C(CO)C(O)C1O (stereo not drawn) [DZNep, 3-Deazaneplanocin]
- osteocalcin (OCN) expression in vivo (bone defect mice; 100 μg/kg i.p.): increased
- BV/TV (micro-CT) (bone defect mice; [1]): prominently increased
- trabecular thickness (Tb.th) (micro-CT) (bone defect mice; [1]): prominently increased
- bone mineral density (X-ray) (bone defect mice; 100 μg/kg i.p. every two days, two weeks, vs control): more bone mineral density
- bone repair (H&E-stained sections) (bone defect mice; 100 μg/kg i.p., vs control): more significant bone repair
- number of TRAP-positive multinucleated osteoclasts in vivo (bone defect mice; 100 μg/kg i.p., vs vehicle-treated group): more number of TRAP-positive multinucleated osteoclasts
- EZH2 and H3k27me3 expression in BMSC (EZH2 and H3K27me3; 0, 25, 50, 100 nM, 24 h, vs control): dose-dependent decreased
- phosphorylation level of GSK-3β (EZH2 and H3K27me3; BMSC): no significant change
- phosphorylation of JNK, p38, and ERK (MAPKs signaling pathways): comparable
